In patent US20250127168A1, “METHOD FOR PATHOGENS, MICROORGANISMS, AND PARASITES INACTIVATION” (New York Blood Center, Inc., priority 2018, published 2025):

How the values were obtained:
[1] = Storage stability of formulated compounds; assay type: physicochemical
Excerpt: The solutions of the free bases of the compound of Structure I are alkaline, and can absorb atmospheric carbon dioxide, which can compromise the stability of the solutions and accelerate their hydrolysis or other degradation. The free bases of the compounds of Structure I may be stabilized by addition of small amounts of basic compounds, for example of sodium hydroxide.
The compounds of Structure I can be converted to solid solutions by quick solidification by cooling of their solution in compounds which are solid at room temperature. For example, if compound VI is added, in amount of up to 3% to melted polyethylene glycol, and the resulted solution is cooled quickly, preferably in thin film, a solid solution of compound VI is formed. […] The stability of the solid solutions can be further enhanced by addition of traces of strong bases, as for example, of sodium hydroxide. The preferred solids for the preparing of solid solution of compounds of Structure I have melting points above 40° C. and below 120° C., are well soluble in aqueous media, are neutral in chemical character, and have no adverse effect on the sample to be treated by the process, or on its intended use.

RSV's fusion (F) protein = molecular target: T1, RSV's fusion (F) protein (Human respiratory syncytial virus A, UniProt P03420); experiment: Anti-F antibody binding to treated RSV (ELISA); settings: 100 μM, 4 hours at 40° C.
T1 construct: Sucrose gradient-purified RSV was treated with compound VI and compound X; host or cells: sucrose gradient-purified RSV virions
T1 sequence (P03420 137-574): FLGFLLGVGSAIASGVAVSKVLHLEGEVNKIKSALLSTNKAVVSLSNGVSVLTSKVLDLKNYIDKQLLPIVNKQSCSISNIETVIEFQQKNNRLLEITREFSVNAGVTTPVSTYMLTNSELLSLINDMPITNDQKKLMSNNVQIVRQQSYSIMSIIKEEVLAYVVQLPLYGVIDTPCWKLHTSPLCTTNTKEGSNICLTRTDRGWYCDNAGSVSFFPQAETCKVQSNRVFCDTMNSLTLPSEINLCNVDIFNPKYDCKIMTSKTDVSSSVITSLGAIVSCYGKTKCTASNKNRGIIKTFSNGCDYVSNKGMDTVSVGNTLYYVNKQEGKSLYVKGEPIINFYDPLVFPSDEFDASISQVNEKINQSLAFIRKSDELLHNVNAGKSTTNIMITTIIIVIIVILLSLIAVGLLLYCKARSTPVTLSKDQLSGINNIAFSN
T1 sequence (P03420 26-109): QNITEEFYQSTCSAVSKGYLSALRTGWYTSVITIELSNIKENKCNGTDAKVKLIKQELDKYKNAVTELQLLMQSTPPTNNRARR
Experimental: Controls included mock-treated RSV incubated for 4 hours at 40° C. and non-treated virus kept at 4°° C. ELISA assay was performed according procedure described by Schmidt et al, J Virol. […] Eight serial 1:2 dilutions in PBS were plated (50 µl/well) in triplicates into 96-well plates, and incubated overnight at 4° C. The wells were washed with PBS and blocked with PBS/1% BSA. Anti-protein F antibody was added, and the mixture was incubated for 2 h, followed by washings and the addition of anti-mouse IgG HRP conjugate. After another round of washing, TMB substrate and sulfuric acid were added and readings were conducted using ELISA Reader SPECTRAmax PLUS (Molecular Devices,

B. cereus [2] = experiment: Bacterial inactivation in Ringer's solution, colony agar plate count; assay type: cell-based; settings: 100 μM, RT, 1 h treatment
Experimental: (§1) A panel of G+F and G-bacteria were inactivated in their respective growth medium using compound VI, compound X, and compound XIV. All cells were grown in corresponding media to middle log phase, collected by centrifugation, re-suspended in Ringer's solution (RS), and treated at RT with 100 μM of compound VI, compound X, and compound XIV, which were added to the suspension as 100× concentrate in RS. Controls received RS only. At the end of the incubation, unreacted compound VI, compound X, and compound XIV were neutralized with 10 mM sodium thiophosphate during incubation at RT for 30 min. The viable cells were enumerated using serial dilutions by standard colony agar plate count. Table 1 summarizes the typical results of 1 h treatment of E. coli, P. fluorescens, Y. enterocolitica, B. cereus, S. aureus, and S. epidermidis with compound VI, compound X, and compound XIV.

E. coli = experiment: as above; assay type: cell-based; settings: 100 μM, RT, 1 h treatment
Experimental: as §1

P. fluorescens [3] = experiment: as above; assay type: cell-based; settings: 100 μM, RT, 1 h treatment
Experimental: as §1

S. aureus = experiment: as above; assay type: cell-based; settings: 100 μM, RT, 1 h treatment
Experimental: as §1

S. epidermidis [4] = experiment: as above; assay type: cell-based; settings: 100 μM, RT, 1 h treatment
Experimental: as §1

Y. enterocolitica [5] = experiment: as above; assay type: cell-based; settings: 100 μM, RT, 1 h treatment
Experimental: as §1

[6] = tested on: Human respiratory syncytial virus (RSV); experiment: Viral inactivation, modified plaque assay; assay type: cell-based; settings: 100 μM, RT
Experimental: Human respiratory syncytial virus (RSV) was inactivated by using Compound VI or Compound X. For that purpose, sucrose gradient-purified virus was treated with 100 μM of Compound VI and Compound X at RT. […] The virus titers were determined using standard 10× serial dilutions in a modified plaque assay. For mock-treated virus no significant changes in RSV infectivity were found even after 6 h incubation at RT (in different experiments, the reduction of titers were in the range of 0.11-0.36 Login PFU/mL).
Inactivation of RSV with different concentrations of Compound XVI at RT and 40° C. was performed as described in Example 9.

B. cereus [7] = experiment: Bacterial inactivation in WB, LB and RBCC, growth/no growth; assay type: cell-based; design: key: “+” Growth; “−” No growth; settings: 6 h at RT
Experimental: (§2) Two G− species, Y. enterocolitica and P. fluorescens, both psychrophiles, and two G+ bacteria, S. epidermids and B. cereus, all known blood contaminants, were used in this study. All blood samples were spiked with approximately 0.1% bacterial stock suspension prepared in RS and left for equilibration at RT for 30 min. Freshly grown overnight bacterial cultures were used for each spiking. Compound VI and compound X were added to spiked blood to final concentrations of 100, 250, and 500 μM. Control samples (Ctr) received solvent only. Incubation was carried out at RT for 6 h followed by the addition of an inactivator, 100x Na thiosulfate, and additional incubation at RT for 2 h. After the incubation and quenching, aliquots were taken for serial dilutions and plate drop-counting and the bacterial growth-promoting solution (containing tryptone, peptone, yeast extract and casamino acids) was added to the remaining volumes. The growth/no growth results were confirmed by streaking agar plates.

P. fluorescens [8] = experiment: as above; assay type: cell-based; design: key: “+” Growth; “−” No growth; settings: 6 h at RT
Experimental: as §2

S. epidermidis [9] = experiment: as above; assay type: cell-based; design: key: “+” Growth; “−” No growth; settings: 6 h at RT
Experimental: as §2

Y. enterocolitica [10] = experiment: as above; assay type: cell-based; design: key: “+” Growth; “−” No growth; settings: 6 h at RT
Experimental: as §2

[11] = row 1 h, footnote c: time points were 2, 4, and 6 h (2 h)
[12] = row 3 h, footnote c: time points were 2, 4, and 6 h (4 h)

Compound: CN(CCCCN(C)CCCN1CC1)CCCN1CC1 [Compound VI, N^1,N^4-bis(3-(aziridin-1-yl)propyl)-N^1,N^4-dimethylbutane-1,4-diamine]
- storage stability [1]: significantly higher storage stability
- recognition of the F protein by monoclonal antibody after treatment (RSV's fusion (F) protein): did not change the degree of recognition of the F protein
- Titer (B. cereus [2]): 2.45 Log10CFU/mL
- Titer (E. coli): 4.60 Log10CFU/mL
- Titer (P. fluorescens [3]): 2.78 Log10CFU/mL
- Titer (S. aureus): 7.08 Log10CFU/mL
- Titer (S. epidermidis [4]): 8.11 Log10CFU/mL
- Titer (Y. enterocolitica [5]): 6.72 Log10CFU/mL
- RSV titer ([6]; incubation 6 h): below the limit of detection and BLD
- RSV titer [6, 11]: 4.52 Log10PFU/mL
- RSV titer [6, 12]: 1.89 Log10PFU/mL
- Growth / No growth (B. cereus [7]; LB, 100 μM): −
- Growth / No growth (B. cereus [7]; LB, 250 μM): −
- Growth / No growth (B. cereus [7]; LB, 500 μM): −
- Growth / No growth (B. cereus [7]; RBCC, 100 μM): +
- Growth / No growth (B. cereus [7]; RBCC, 250 μM): −
- Growth / No growth (B. cereus [7]; RBCC, 500 μM): −
- Growth / No growth (B. cereus [7]; WB, 100 μM): +
- Growth / No growth (B. cereus [7]; WB, 250 μM): −
- Growth / No growth (B. cereus [7]; WB, 500 μM): −
- Growth / No growth (P. fluorescens [8]; LB, 100 μM): −
- Growth / No growth (P. fluorescens [8]; LB, 250 μM): −
- Growth / No growth (P. fluorescens [8]; LB, 500 μM): −
- Growth / No growth (P. fluorescens [8]; RBCC, 100 μM): −
- Growth / No growth (P. fluorescens [8]; RBCC, 250 μM): −
- Growth / No growth (P. fluorescens [8]; RBCC, 500 μM): −
- Growth / No growth (P. fluorescens [8]; WB, 100 μM): −
- Growth / No growth (P. fluorescens [8]; WB, 250 μM): −
- Growth / No growth (P. fluorescens [8]; WB, 500 μM): −
- Growth / No growth (S. epidermidis [9]; LB, 100 μM): −
- Growth / No growth (S. epidermidis [9]; LB, 250 μM): −
- Growth / No growth (S. epidermidis [9]; LB, 500 μM): −
- Growth / No growth (S. epidermidis [9]; RBCC, 100 μM): −
- Growth / No growth (S. epidermidis [9]; RBCC, 250 μM): −
- Growth / No growth (S. epidermidis [9]; RBCC, 500 μM): −
- Growth / No growth (S. epidermidis [9]; WB, 100 μM): −
- Growth / No growth (S. epidermidis [9]; WB, 250 μM): −
- Growth / No growth (S. epidermidis [9]; WB, 500 μM): −
- Growth / No growth (Y. enterocolitica [10]; LB, 100 μM): −
- Growth / No growth (Y. enterocolitica [10]; LB, 250 μM): −
- Growth / No growth (Y. enterocolitica [10]; LB, 500 μM): −
- Growth / No growth (Y. enterocolitica [10]; RBCC, 100 μM): −
- Growth / No growth (Y. enterocolitica [10]; RBCC, 250 μM): −
- Growth / No growth (Y. enterocolitica [10]; RBCC, 500 μM): −
- Growth / No growth (Y. enterocolitica [10]; WB, 100 μM): −
- Growth / No growth (Y. enterocolitica [10]; WB, 250 μM): −
- Growth / No growth (Y. enterocolitica [10]; WB, 500 μM): −

Compound: CN(CCCCN(C)CCCN1CC1)CCCN(C)CCCN1CC1 [Compound X]
- long term storage stability ([1]; glycerol solution, addition of 0.1% of sodium hydroxide): significantly stabilized
- recognition of the F protein by monoclonal antibody after treatment (RSV's fusion (F) protein): did not change the degree of recognition of the F protein
- Titer (B. cereus [2]): ≤1.00 Log10CFU/mL
- Titer (E. coli): 3.98 Log10CFU/mL
- Titer (P. fluorescens [3]): ≤1.00 Log10CFU/mL
- Titer (S. aureus): 6.70 Log10CFU/mL
- Titer (S. epidermidis [4]): 7.32 Log10CFU/mL
- Titer (Y. enterocolitica [5]): 4.85 Log10CFU/mL
- RSV titer ([6]; incubation 6 h): 1.95 Log10PFU/mL
- RSV titer [6, 11]: 4.95 Log10PFU/mL
- RSV titer [6, 12]: 3.48 Log10PFU/mL
- Growth / No growth (B. cereus [7]; LB, 100 μM): −
- Growth / No growth (B. cereus [7]; LB, 250 μM): −
- Growth / No growth (B. cereus [7]; RBCC, 250 μM): −
- Growth / No growth (B. cereus [7]; WB, 100 μM): −
- Growth / No growth (B. cereus [7]; WB, 250 μM): −
- Growth / No growth (B. cereus [7]; WB, 500 μM): −
- Growth / No growth (P. fluorescens [8]; LB, 100 μM): −
- Growth / No growth (P. fluorescens [8]; LB, 250 μM): −
- Growth / No growth (P. fluorescens [8]; RBCC, 100 μM): −
- Growth / No growth (P. fluorescens [8]; RBCC, 250 μM): −
- Growth / No growth (P. fluorescens [8]; WB, 100 μM): −
- Growth / No growth (P. fluorescens [8]; WB, 250 μM): −
- Growth / No growth (S. epidermidis [9]; LB, 100 μM): −
- Growth / No growth (S. epidermidis [9]; LB, 250 μM): −
- Growth / No growth (S. epidermidis [9]; RBCC, 100 μM): −
- Growth / No growth (S. epidermidis [9]; RBCC, 250 μM): −
- Growth / No growth (S. epidermidis [9]; WB, 100 μM): −
- Growth / No growth (S. epidermidis [9]; WB, 250 μM): −
- Growth / No growth (Y. enterocolitica [10]; LB, 100 μM): −
- Growth / No growth (Y. enterocolitica [10]; LB, 250 μM): −
- Growth / No growth (Y. enterocolitica [10]; RBCC, 100 μM): −
- Growth / No growth (Y. enterocolitica [10]; RBCC, 250 μM): −
- Growth / No growth (Y. enterocolitica [10]; WB, 100 μM): −
- Growth / No growth (Y. enterocolitica [10]; WB, 250 μM): −
